The experiment relates to mice in a formalin test. Kind of experiment: Antalgic effect (II) on mice in a formalin test (comparison with morphine and indomethacin). Format: in vivo. To be noted: for average left hind leg-licking time, Mean: formalin 5 minutes later. The procedure: Antalgic Effect (II) on Mice in a Formalin Test
The typical example of the compound of the present invention (the compound in Example 1) was compared with morphine and indomethacin in the same manner as in Pharmacological Experimental Example 5 above.
20.4 mg of the compound of the present invention was weighed, and 10.2 ml of 5.28% mannitol was added thereto to prepare 2 mg/ml (20 mg/kg) solution. Then, 3.8 ml of 5.28% mannitol was added to 3.8 ml of the 2 mg/ml solution to prepare 1 mg/ml (10 mg/kg) solution. Finally, 2.5 ml of 5.28% mannitol was added to 2.5 ml of the 1 mg/ml solution to prepare 0.5 mg/ml (5 mg/kg) solution. The test compound was weighed and prepared on the day when the experiment was conducted.
b-1) Morphine 17.0 mg of morphine purchased as a reagent was weighed, and 5.67 ml physiological saline was added thereto to form 3 mg/ml (30 mg/kg) solution. Then, 2.6 ml physiological saline was added to 1.3 ml of the 3 mg/ml solution to prepare 1 mg/ml (10 mg/kg) solution. Finally, 2.1 ml physiological saline was added to 0.9 ml of the 1 mg/ml solution to prepare 0.3 mg/ml (3 mg/kg) solution. The test compound was weighed and prepared on the day when the experiment was conducted.
12.9 mg of indomethacin purchased as a reagent was weighed, and 12.9 ml of 0.5% methyl cellulose (MC) was added thereto to form 1 mg/ml (10 mg/kg) suspension. Then, 2.24 ml of 0.5% MC was added to 0.96 ml of the 1 mg/ml suspension to prepare 0.3 mg/ml (3 mg/kg) suspension. Finally, 1.6 ml of 0.5% MC was added to 0.8 ml of the 0.3 mg/ml suspension to prepare 0.1 mg/ml (1 mg/kg) suspension. The test compound was weighed and prepared on the day when the experiment was conducted.
The treatment group by the compound of the present invention consisted of 4 groups in total, that is, a control group, a 5 mg/kg compound administration group, a 10 mg/kg compound administration group, and a 20 mg/kg compound administration group, and each group consisted of 5 animals.
The control group was given 0.1 ml of 5.28% mannitol per 10 g of the body weight via the tail vein. The compound of the present invention was administered via the tail vein at each concentration (0.5 mg/ml, 1 mg/ml, and 2 mg/ml) in an volume of 0.1 ml per 10 g of the body weight into the 5 mg/kg group, 10 mg/kg group and 20 mg/kg group, respectively.
The treatment group by morphine consisted of 4 groups in total, that is, a control group, a 3 mg/kg morphine administration group, a 10 mg/kg morphine administration group, and a 30 mg/kg morphine administration group, and each group consisted of 5 animals.
The control group was orally given 0.1 ml of physiological saline per 10 g of the body weight. Morphine was orally administered at each concentration (0.3 mg/ml, 1 mg/ml, and 3 mg/ml) in a volume of 0.1 ml per 10 g of the body weight into the 3 mg/kg group, 10 mg/kg group and 30 mg/kg group, respectively.
The treatment group by indomethacin consisted of 4 groups in total, that is, a control group, a 1 mg/kg indomethacin administration group, a 3 mg/kg indomethacin administration group, and a 10 mg/kg indomethacin administration group, and each group consisted of 5 animals.
The control group was orally given 0.1 ml of 0.5% MC per 10 g of the body weight. Indomethacin was orally administered at each concentration (0.1 mg/ml, […], and 1 mg/ml) in a volume of 0.1 ml per 10 g of the body weight into the 1 mg/kg group, 3 mg/kg group and 10 mg/kg group, respectively.
5.28% mannitol was administered via the tail vein into each group given the compound of the present invention or into the control group, and the animals were placed in a transparent plastic observation cage. 5 minutes later, 20 μl of 3% formalin was subcutaneously administered into the bottom of the left hind leg of each mouse. The duration of the behavior of mouse's licking the left hind leg after administration of formalin was measured for 5 minutes and used as an indication of pain. The duration was expressed in second. […]

From patent publication US6737425B1, “N,N-substituted cyclic amine derivatives” (Eisai Co., Ltd., priority 1998, dated 2004) come the findings set out here.

For the compound `CC(C)C(C#N)(CCCN1CCN(CCOc2ccc(F)cc2)CC1)c1ccccc1` (stereo not shown) [Example 1, 1-[(4-Cyano-5-methyl-4-phenyl)hexyl]-4-[2-(4-fluorophenoxy)ethyl]piperazine], the “average left hind leg-licking time, Mean” value runs as follows: (5 mg/kg i.v. (tail vein)) 49.4 s; (10 mg/kg i.v. (tail vein)) 23.6 s; (20 mg/kg i.v. (tail vein)) 2.2 s. Further, the “antalgic effect in the formalin test” value (overall conclusion of the comparison) is on record as “excellent effect similar to that of morphine”.
